pIC50: −log10 of the molar value.

IC50 data for 16 compounds are collected here from patent US20160060260A1, “BROMODOMAIN INHIBITORS FOR TREATING DISEASE” (Board of Regents, The University of Texas System, priority 2014, published 2016).

This assay addresses T1, Recombinant human His-tagged Trim24-PHD-bromodomain (Homo sapiens, UniProt O15164).
T1 construct: Recombinant human His-tagged Trim24-PHD-bromodomain (produced in-house); made in house
T1 sequence (O15164 824-1006 limits assumed): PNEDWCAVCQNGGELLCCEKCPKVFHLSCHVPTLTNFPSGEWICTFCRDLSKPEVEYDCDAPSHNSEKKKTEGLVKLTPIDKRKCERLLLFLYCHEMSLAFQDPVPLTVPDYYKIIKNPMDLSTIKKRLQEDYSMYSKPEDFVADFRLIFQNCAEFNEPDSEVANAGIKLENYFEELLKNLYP
Briefly: Trim24 AlphaScreen Assay. Particulars: 5 nM Trim24 protein, 15 nM biotinylated H3K23ac (1-33aa) peptide. The format is binding. In short, it runs like this:
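AlphaScreen read-out after 2 h with streptavidin donor and Ni-chelate acceptor beads at 10 ug/mL each, following 1 h room-temperature incubation of compound, His-tagged PHD-bromodomain protein and biotin-H3K23ac (1-33aa) peptide in Hepes pH 7.5 buffer with NaCl and Triton X-100. Signals normalised between no-compound and no-protein wells; IC50 from four-parameter logistic curves.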
In general terms: In Alpha technology, singlet oxygen from a donor bead excites a nearby acceptor bead.
The term pIC50 denotes the negative decadic logarithm of the IC50, by convention in mol/L. In the case of `CC(COC(=O)CNC(=O)OC(C)(C)C)COc1cccc(Oc2cc3c(cc2NS(=O)(=O)c2cn(C)cn2)n(C)c(=O)n3C)c1` (stereo not shown) [Example 239, 3-(3-{[1,3-dimethyl-6-(1-methyl-1H-imidazole-4-sulfonamido)-2-oxo-2,3-dihydro-1H-1,3-benzodiazol-5-yl]oxy}phenoxy)-2-methylpropyl 2-{[(tert-butoxy)carbonyl]amino}acetate], the pIC50 is 6.00 to 7.00.
As for `Cn1cnc(S(=O)(=O)Nc2cc3c(cc2Oc2cccc(OCCCO)c2)n(C)c(=O)n3C)c1` [Example 240, N-(6-(3-(3-hydroxypropoxy)phenoxy)-1,3-dimethyl-2-oxo-2,3-dihydro-1H-benzo[d]imidazol-5-yl)-1-methyl-1H-imidazole-4-sulfonamide], the figure is 6.00 to 7.00; as for `COc1cc(S(=O)(=O)Nc2cc3c(cc2Oc2cccc(OCC4CC4)c2)n(C)c(=O)n3C)ccc1O` [Example 241, N-(6-(3-(cyclopropylmethoxy)phenoxy)-1,3-dimethyl-2-oxo-2,3-dihydro-1H-benzo[d]imidazol-5-yl)-4-hydroxy-3-methoxybenzenesulfonamide], 7.00 to 8.00; as for `CCCOc1cc(OCCCCCCNC(C)=O)cc(Oc2cc3c(cc2NS(=O)(=O)c2cn(C)cn2)n(C)c(=O)n3C)c1` [Example 242, N-(6-(3-((1,3-dimethyl-6-(1-methyl-1H-imidazole-4-sulfonamido)-2-oxo-2,3-dihydro-1H-benzo[d]imidazol-5-yl)oxy)-5-propoxyphenoxy)hexyl)acetamide], 7.00 to 8.00.
Under `CCCOc1cccc(Oc2cc3c(cc2NS(=O)(=O)c2cccc(OC/C=C/CCCN)c2)n(C)c(=O)n3C)c1` [Example 243, (E)-3-((6-aminohex-2-en-1-yl)oxy)-N-(1,3-dimethyl-2-oxo-6-(3-propoxyphenoxy)-2,3-dihydro-1H-benzo[d]imidazol-5-yl)benzenesulfonamide 2,2,2-trifluoroacetate] stands 7.00 to 8.00; under `C=CCN(c1cc2c(cc1Oc1cccc(OCCC)c1)n(C)c(=O)n2C)S(=O)(=O)c1cn(CC=C)cn1` [Example 244, N,1-diallyl-N-(1,3-dimethyl-2-oxo-6-(3-propoxyphenoxy)-2,3-dihydro-1H-benzo[d]imidazol-5-yl)-1H-imidazole-4-sulfonamide], 6.00 to 7.00; under `CCCOc1cc(OCCCCCCN)cc(Oc2cc3c(cc2N(C)S(=O)(=O)c2ccc(OC)c(OC)c2)n(C)c(=O)n3C)c1` [Example 245, N-(6-(3-((6-aminohexyl)oxy)-5-propoxyphenoxy)-1,3-dimethyl-2-oxo-2,3-dihydro-1H-benzo[d]imidazol-5-yl)-3,4-dimethoxy-N-methylbenzenesulfonamide], 6.00 to 7.00.
Under `CCCOc1cc(OCCCCN2CCOCC2)cc(Oc2cc3c(cc2NS(=O)(=O)c2ccc(OC)c(OC)c2)n(C)c(=O)n3C)c1` [Example 246, N-(1,3-dimethyl-6-(3-(4-morpholinobutoxy)-5-propoxyphenoxy)-2-oxo-2,3-dihydro-1H-benzo[d]imidazol-5-yl)-3,4-dimethoxybenzenesulfonamide 2,2,2-trifluoroacetate] stands 7.00 to 8.00; under `CCCOc1cc(OCCCCN2CCC(O)C2)cc(Oc2cc3c(cc2NS(=O)(=O)c2ccc(OC)c(OC)c2)n(C)c(=O)n3C)c1` (stereo not shown) [Example 247, N-(6-{3-[4-(3-hydroxypyrrolidin-1-yl)butoxy]-5-propoxyphenoxy}-1,3-dimethyl-2-oxo-2,3-dihydro-1H-1,3-benzodiazol-5-yl)-3,4-dimethoxybenzene-1-sulfonamide], 7.00 to 8.00; under `CCCOc1cc(OCCCCN2CC(O)C2)cc(Oc2cc3c(cc2NS(=O)(=O)c2ccc(OC)c(OC)c2)n(C)c(=O)n3C)c1` [Example 248, N-(6-{3-[4-(3-hydroxyazetidin-1-yl)butoxy]-5-propoxyphenoxy}-1,3-dimethyl-2-oxo-2,3-dihydro-1H-1,3-benzodiazol-5-yl)-3,4-dimethoxybenzene-1-sulfonamide], 7.00 to 8.00.
For the compound `CCCOc1cc(OCCCCNC)cc(Oc2cc3c(cc2NS(=O)(=O)c2ccc(OC)c(OC)c2)n(C)c(=O)n3C)c1` [Example 249, N-(1,3-dimethyl-6-{3-[4-(methylamino)butoxy]-5-propoxyphenoxy}-2-oxo-2,3-dihydro-1H-1,3-benzodiazol-5-yl)-3,4-dimethoxybenzene-1-sulfonamide], the pIC50 was 7.00 to 8.00.
As for `CCCOc1cc(OCCCCN2CCCC2)cc(Oc2cc3c(cc2NS(=O)(=O)c2ccc(OC)c(OC)c2)n(C)c(=O)n3C)c1` [Example 250, N-(1,3-dimethyl-2-oxo-6-{3-propoxy-5-[4-(pyrrolidin-1-yl)butoxy]phenoxy}-2,3-dihydro-1H-1,3-benzodiazol-5-yl)-3,4-dimethoxybenzene-1-sulfonamide], the figure is 7.00 to 8.00; as for `CCCOc1cc(OCCCCN2CCC2)cc(Oc2cc3c(cc2NS(=O)(=O)c2ccc(OC)c(OC)c2)n(C)c(=O)n3C)c1` [Example 251, N-(6-{3-[4-(azetidin-1-yl)butoxy]-5-propoxyphenoxy}-1,3-dimethyl-2-oxo-2,3-dihydro-1H-1,3-benzodiazol-5-yl)-3,4-dimethoxybenzene-1-sulfonamide], 8.00 to 9.00.
In the case of `CCCOc1cc(OCCCCN)cc(Oc2cc3c(cc2NS(=O)(=O)c2cccc(C(=O)OC)c2)n(C)c(=O)n3C)c1` [Example 252, Methyl 3-({6-[3-(4-aminobutoxy)-5-propoxyphenoxy]-1,3-dimethyl-2-oxo-2,3-dihydro-1H-1,3-benzodiazol-5-yl}sulfamoyl)benzoate], the pIC50 is 7.00 to 8.00.
For `CCCOc1cc(OCCCCN(C)C)cc(Oc2cc3c(cc2NS(=O)(=O)c2cccc(C(=O)O)c2)n(C)c(=O)n3C)c1` [Example 253, 3-(N-(6-(3-(4-(dimethylamino)butoxy)-5-propoxyphenoxy)-1,3-dimethyl-2-oxo-2,3-dihydro-1H-benzo[d]imidazol-5-yl)sulfamoyl)benzoic acid], the pIC50 was 7.00 to 8.00.
Consider `CCCOc1cc(OCCCC[N+](C)(C)C)cc(Oc2cc3c(cc2NS(=O)(=O)c2ccc(OC)c(OC)c2)n(C)c(=O)n3C)c1` [Example 254, 4-(3-((6-(3,4-dimethoxyphenylsulfonamido)-1,3-dimethyl-2-oxo-2,3-dihydro-1H-benzo[d]imidazol-5-yl)oxy)-5-propoxyphenoxy)-N,N,N-trimethylbutan-1-aminium 2,2,2-trifluoroacetate], for which the pIC50 is 8.00 to 9.00.
